# Results as given in PubChem BioAssay (NCI).
#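 Step 1: Grow cells in 96-well plates. Step 2: Expose to compound for 48 hours at 5 concentrations. Step 3: Interpolate endpoints linearly; if unreached, use highest concentration. Abbreviation: GI50, concentration required for 50% inhibition of growth. TGI denotes the concentration required for complete inhibition of growth.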
# What was measured:
# Assay in all cases: growth of human tumour cells (NCI), 48 h
# CCRF-CEM leukemia = test system: CCRF-CEM leukemia
# MDA-MB-231 breast = test system: MDA-MB-231 breast
# SF-539 CNS = test system: SF-539 CNS
# OVCAR-8 ovarian = test system: OVCAR-8 ovarian
# U251 CNS = test system: U251 CNS
# K-562 leukemia = test system: K-562 leukemia
# EKVX NSCLC = test system: EKVX NSCLC
# HCC-2998 colon = test system: HCC-2998 colon
# MCF7 breast = test system: MCF7 breast
# M14 melanoma = test system: M14 melanoma
# SK-MEL-5 melanoma = test system: SK-MEL-5 melanoma
# SN12C renal = test system: SN12C renal
# CAKI-1 renal = test system: CAKI-1 renal
# NCI-H460 lung = test system: NCI-H460 lung
# SW-620 colon = test system: SW-620 colon
# HS 578T breast = test system: HS 578T breast
# MDA-MB-468 breast = test system: MDA-MB-468 breast
# BT-549 breast = test system: BT-549 breast
# HT29 colon = test system: HT29 colon
# COLO 205 colon = test system: COLO 205 colon
# KM12 colon = test system: KM12 colon
# NCI-H226 lung = test system: NCI-H226 lung
# A498 renal = test system: A498 renal
# MALME-3M melanoma = test system: MALME-3M melanoma
# RPMI-8226 leukemia = test system: RPMI-8226 leukemia
# RXF 393 renal = test system: RXF 393 renal
# SNB-75 CNS = test system: SNB-75 CNS
# IGROV1 ovarian = test system: IGROV1 ovarian
# HOP-92 NSCLC = test system: HOP-92 NSCLC
# HOP-62 NSCLC = test system: HOP-62 NSCLC
# DU-145 prostate = test system: DU-145 prostate
# SK-OV-3 ovarian = test system: SK-OV-3 ovarian
# ACHN renal = test system: ACHN renal
# 786-0 renal = test system: 786-0 renal
# TK-10 renal = test system: TK-10 renal
# SR leukemia = test system: SR leukemia
# NCI-H522 lung = test system: NCI-H522 lung
# MOLT-4 leukemia = test system: MOLT-4 leukemia
# HL-60(TB) leukemia = test system: HL-60(TB) leukemia
# LOX IMVI melanoma = test system: LOX IMVI melanoma
# HCT-15 colon = test system: HCT-15 colon
# MDA-MB-435 = test system: MDA-MB-435
# UO-31 renal = test system: UO-31 renal
# PC-3 prostate = test system: PC-3 prostate
# SK-MEL-28 melanoma = test system: SK-MEL-28 melanoma
# SF-268 CNS = test system: SF-268 CNS
# UACC-62 melanoma = test system: UACC-62 melanoma
# T-47D breast = test system: T-47D breast
# A549 NSCLC = test system: A549 NSCLC
# OVCAR-5 ovarian = test system: OVCAR-5 ovarian
# HCT-116 colon = test system: HCT-116 colon
# SF-295 CNS = test system: SF-295 CNS
# NCI-H23 lung = test system: NCI-H23 lung
# SNB-19 CNS = test system: SNB-19 CNS
# OVCAR-4 ovarian = test system: OVCAR-4 ovarian
# OVCAR-3 ovarian = test system: OVCAR-3 ovarian
# UACC-257 melanoma = test system: UACC-257 melanoma
compound,measurement,setting,value
COc1ccc(C(SCCNCc2cc(N(C)C)ccn2)(c2ccccc2)c2ccccc2)cc1,GI50,CCRF-CEM leukemia,0.468 µM
same,TGI,CCRF-CEM leukemia,15.4 µM
same,GI50,MDA-MB-231 breast,1.48 µM
same,TGI,MDA-MB-231 breast,4.8 µM
same,GI50,SF-539 CNS,1.61 µM
same,TGI,SF-539 CNS,3.83 µM
same,GI50,OVCAR-8 ovarian,1.87 µM
same,TGI,OVCAR-8 ovarian,18.1 µM
same,GI50,U251 CNS,0.592 µM
same,TGI,U251 CNS,13.6 µM
same,GI50,K-562 leukemia,0.697 µM
same,TGI,K-562 leukemia,13.6 µM
same,GI50,EKVX NSCLC,1.5 µM
same,TGI,EKVX NSCLC,17.1 µM
same,GI50,HCC-2998 colon,0.7 µM
same,TGI,HCC-2998 colon,2.14 µM
same,GI50,MCF7 breast,0.322 µM
same,TGI,MCF7 breast,11 µM
same,GI50,M14 melanoma,0.447 µM
same,TGI,M14 melanoma,2.48 µM
same,GI50,SK-MEL-5 melanoma,1.08 µM
same,TGI,SK-MEL-5 melanoma,3.82 µM
same,GI50,SN12C renal,1.49 µM
same,TGI,SN12C renal,13.7 µM
same,GI50,CAKI-1 renal,3.54 µM
same,TGI,CAKI-1 renal,17.6 µM
same,GI50,NCI-H460 lung,2.93 µM
same,TGI,NCI-H460 lung,12.5 µM
same,GI50,SW-620 colon,0.916 µM
same,TGI,SW-620 colon,16.8 µM
same,GI50,HS 578T breast,1.37 µM
same,TGI,HS 578T breast,9.32 µM
same,GI50,MDA-MB-468 breast,0.544 µM
same,TGI,MDA-MB-468 breast,2.9 µM
same,GI50,BT-549 breast,1.92 µM
same,TGI,BT-549 breast,6.03 µM
same,GI50,HT29 colon,2.25 µM
same,TGI,HT29 colon,5.66 µM
same,GI50,COLO 205 colon,1.09 µM
same,TGI,COLO 205 colon,2.97 µM
same,GI50,KM12 colon,3.66 µM
same,TGI,KM12 colon,16 µM
same,GI50,NCI-H226 lung,4.45 µM
same,TGI,NCI-H226 lung,17.8 µM
same,GI50,A498 renal,15.6 µM
same,TGI,A498 renal,30.1 µM
same,GI50,MALME-3M melanoma,3.36 µM
same,TGI,MALME-3M melanoma,15.8 µM
same,GI50,RPMI-8226 leukemia,0.954 µM
same,TGI,RPMI-8226 leukemia,10 µM
same,GI50,RXF 393 renal,2.61 µM
same,TGI,RXF 393 renal,11.5 µM
same,GI50,SNB-75 CNS,2.86 µM
same,TGI,SNB-75 CNS,13.6 µM
same,GI50,IGROV1 ovarian,3.43 µM
same,TGI,IGROV1 ovarian,17.1 µM
same,GI50,HOP-92 NSCLC,2.16 µM
same,TGI,HOP-92 NSCLC,11 µM
same,GI50,HOP-62 NSCLC,4.34 µM
same,TGI,HOP-62 NSCLC,19.8 µM
same,GI50,DU-145 prostate,3.5 µM
same,TGI,DU-145 prostate,12.8 µM
same,GI50,SK-OV-3 ovarian,3.57 µM
same,TGI,SK-OV-3 ovarian,15.9 µM
same,GI50,ACHN renal,2.48 µM
same,TGI,ACHN renal,18.5 µM
same,GI50,786-0 renal,1.4 µM
same,TGI,786-0 renal,7.55 µM
same,GI50,TK-10 renal,9.54 µM
same,TGI,TK-10 renal,21.7 µM
same,GI50,SR leukemia,0.566 µM
same,TGI,SR leukemia,> 100 µM
same,GI50,NCI-H522 lung,0.707 µM
same,TGI,NCI-H522 lung,5.77 µM
same,GI50,MOLT-4 leukemia,3.47 µM
same,TGI,MOLT-4 leukemia,13.6 µM
same,GI50,HL-60(TB) leukemia,2.11 µM
same,TGI,HL-60(TB) leukemia,5.28 µM
same,GI50,LOX IMVI melanoma,2.04 µM
same,TGI,LOX IMVI melanoma,11.4 µM
same,GI50,HCT-15 colon,0.432 µM
same,TGI,HCT-15 colon,11.6 µM
same,GI50,MDA-MB-435,0.214 µM
same,TGI,MDA-MB-435,0.475 µM
same,GI50,UO-31 renal,3.78 µM
same,TGI,UO-31 renal,17.5 µM
same,GI50,PC-3 prostate,1.67 µM
same,TGI,PC-3 prostate,15 µM
same,GI50,SK-MEL-28 melanoma,5.6 µM
same,TGI,SK-MEL-28 melanoma,18.7 µM
same,GI50,SF-268 CNS,4.02 µM
same,TGI,SF-268 CNS,20.4 µM
same,GI50,UACC-62 melanoma,4.22 µM
same,TGI,UACC-62 melanoma,16.6 µM
same,GI50,T-47D breast,4.7 µM
same,TGI,T-47D breast,21.9 µM
same,GI50,A549 NSCLC,3.79 µM
same,TGI,A549 NSCLC,20 µM
same,GI50,OVCAR-5 ovarian,3.07 µM
same,TGI,OVCAR-5 ovarian,11.9 µM
same,GI50,HCT-116 colon,0.324 µM
same,TGI,HCT-116 colon,10.5 µM
same,GI50,SF-295 CNS,0.618 µM
same,TGI,SF-295 CNS,11.5 µM
same,GI50,NCI-H23 lung,3.12 µM
same,TGI,NCI-H23 lung,13.1 µM
same,GI50,SNB-19 CNS,3.48 µM
same,TGI,SNB-19 CNS,15.3 µM
same,GI50,OVCAR-4 ovarian,9.25 µM
same,TGI,OVCAR-4 ovarian,22.7 µM
same,GI50,OVCAR-3 ovarian,2.53 µM
same,TGI,OVCAR-3 ovarian,12.4 µM
same,GI50,UACC-257 melanoma,5.71 µM
same,TGI,UACC-257 melanoma,19.8 µM
